For this experiment, the system named is Pythium ultimum. The experiment is described as follows: Pythium ultimum / liquid culture (seedling damping off). Particulars: Globisporangium ultimum, liquid culture in PDB, 24 °C, 2-3 days after application, read-out: control of Pythium ultimum (inhibition of growth, photometric) compared to untreated control. The format is cell-based. How it is done:
Pythium ultimum/Liquid Culture (Seedling Damping Off):
Mycelia fragments and oospores of a newly grown liquid culture of the fungus are directly mixed into nutrient broth (PDB potato dextrose broth). After placing a (DMSO) solution of test compound into a microtiter plate (96-well format), the nutrient broth containing the fungal mycelia/spore mixture is added. The test plates are incubated at 24° C. and the inhibition of growth is determined photometrically 2-3 days after application.

As a reminder, the inhibition is how much of the control response was suppressed.

With `COC(=O)Nc1ccc(-c2cnc3ccc(C(=O)N(C)c4ccc(F)nc4)cn23)cn1` [Compound 60, methyl N-[5-[6-[(6-fluoro-3-pyridyl)-methyl-carbamoyl]imidazo[1,2-a]pyridin-3-yl]-2-pyridyl]carbamate], the inhibition at 20 ppm was at least 80%. To `COC(=O)Nc1ccc(-c2cnc3ccc(C(=O)N(CCC#N)c4ccc(Cl)c(C)c4)cn23)cn1` [Compound 148, methyl N-[5-[6-[(4-chloro-3-methyl-phenyl)-(2-cyanoethyl)carbamoyl]imidazo[1,2-a]pyridin-3-yl]-2-pyridyl]carbamate] belongs at least 80%; to `CCN(C(=O)c1ccc2ncc(-c3ccc(NC(=O)OC)nc3)n2c1)c1cccc(F)c1` [Compound 145, methyl N-[5-[6-[ethyl-(3-fluorophenyl)carbamoyl]imidazo[1,2-a]pyridin-3-yl]-2-pyridyl]carbamate], at least 80%; to `COC(=O)Nc1ccc(-c2cnc3ccc(C(=O)N(C)c4ccc(C)c(C)c4)cn23)cc1` [Compound 13, methyl N-[4-[6-[(3,4-dimethylphenyl)-methyl-carbamoyl]imidazo[1,2-a]pyridin-3-yl]phenyl]carbamate], at least 80%. In the case of `COC(=O)Nc1ccc(-c2cnc3ccc(C(=O)N(CCO)c4ccccc4)cn23)cn1` [Compound 112, methyl N-[5-[6-[2-hydroxyethyl(phenyl)carbamoyl]imidazo [1,2-a]pyridin-3-yl]-2-pyridyl]carbamate], the inhibition at 20 ppm was at least 80%. To `COC(=O)Nc1ccc(-c2cnc3ccc(C(=O)N(C)c4cccc(Br)c4)cn23)cn1` [Compound 69, methyl N-[5-[6-[(3-bromophenyl)-methyl-carbamoyl]imidazo[1,2-a]pyridin-3-yl]-2-pyridyl]carbamate] belongs at least 80%; to `COC(=O)Nc1ccc(-c2cnc3ccc(C(=O)N(C)c4ccc(Cl)c(C(F)(F)F)c4)cn23)cn1` [Compound 121, methyl N-[5-[6-[[4-chloro-3-(trifluoromethyl)phenyl]-methyl-carbamoyl]imidazo[1,2-a]pyridin-3-yl]-2-pyridyl]carbamate], at least 80%; to `COC(=O)Nc1ccc(-c2cnc3ccc(C(=O)N(CCC#N)c4ccc(C)cc4)cn23)cn1` [Compound 125, methyl N-[5-[6-[2-cyanoethyl(p-tolyl)carbamoyl]imidazo[1,2-a]pyridin-3-yl]-2-pyridyl]carbamate], at least 80%. On to `C#CCN(C(=O)c1ccc2ncc(-c3ccc(NC(=O)OC)cc3)n2c1)c1ccc(Cl)cc1` [Compound 33, methyl N-[4-[6-[(4-chlorophenyl)-prop-2-ynyl-carbamoyl]imidazo[1,2-a]pyridin-3-yl]phenyl]carbamate], for which the inhibition at 20 ppm is at least 80%. The same measure for `CCN(C(=O)c1ccc2ncc(-c3ccc(NC(=O)OC)nc3)n2c1)c1ccc(C)c(F)c1` [Compound 127, methyl N-[5-[6-[ethyl-(3-fluoro-4-methyl-phenyl)carbamoyl]imidazo [1,2-a]pyridin-3-yl]-2-pyridyl]carbamate]: at least 80%. To `CCOC(=O)c1cc(N(C)C(=O)c2ccc3ncc(-c4ccc(NC(=O)OC)nc4)n3c2)ccc1F` [Compound 176, ethyl 2-fluoro-5-[[3-[6-(methoxy-carbonylamino)-3-pyridyl]imidazo[1,2-a]pyridine-6-carbonyl]-methyl-amino]benzoate] belongs at least 80%; to `COC(=O)Nc1ccc(-c2cnc3ccc(C(=O)N(C)c4ccncc4)cn23)cc1` [Compound 24, methyl N-[4-[6-[methyl(4-pyridyl)carbamoyl]imidazo [1,2-a]pyridin-3-yl]phenyl]carbamate], at least 80%. The same measure for `COC(=O)Nc1ccc(-c2cnc3ccc(C(=O)N(C)c4cccc(C5CC5)c4)cn23)cn1` [Compound 72, methyl N-[5-[6-[(3-cyclopropylphenyl)-methyl-carbamoyl]imidazo[1,2-a]pyridin-3-yl]-2-pyridyl]carbamate]: at least 80%; for `COC(=O)Nc1ccc(-c2cnc3ccc(C(=O)N(CC#N)c4ccc(C)cc4)cn23)cn1` [Compound 143, methyl N-[5-[6-[cyanomethyl(p-tolyl)carbamoyl]imidazo [1,2-a]pyridin-3-yl]-2-pyridyl]carbamate]: at least 80%; for `COC(=O)Nc1ccc(-c2cnc3ccc(C(=O)N(CC(F)(F)F)c4ccc(Cl)cc4)cn23)cc1` [Compound 29, methyl N-[4-[6-[(4-chlorophenyl)-(2,2,2-trifluoroethyl)carbamoyl]imidazo [1,2-a]pyridin-3-yl]phenyl]carbamate]: at least 80%.

Regarding `COC(=O)Nc1ccc(-c2cnc3ccc(C(=O)N(CC#N)c4ccccc4)cn23)cn1` [Compound 108, methyl N-[5-[6-[cyanomethyl(phenyl)carbamoyl]imidazo[1,2-a]pyridin-3-yl]-2-pyridyl] carbamate], the inhibition at 20 ppm is at least 80%. To `COC(=O)Nc1ccc(-c2cnc3ccc(C(=O)N(C)c4cccc(C)c4)cn23)cn1` [Compound 54, methyl N-[5-[6-[methyl(m-tolyl)carbamoyl]imidazo [1,2-a]pyridin-3-yl]-2-pyridyl]carbamate] belongs at least 80%; to `COC(=O)Nc1ccc(-c2cnc3cc(C#N)c(C(=O)N(C)c4ccc(Cl)cc4)cn23)cc1` [Compound 41, methyl N-[4-[6-[(4-chlorophenyl)-methyl-carbamoyl]-7-cyano-imidazo[1,2-a]pyridin-3-yl]phenyl]carbamate], at least 80%; to `COC(=O)Nc1ccc(-c2cnc3ccc(C(=O)N(C)c4ccc(C)cc4)cn23)cc1` [Compound 16, methyl N-[4-[6-[methyl (p-tolyl)carbamoyl]imidazo [1,2-a]pyridin-3-yl]phenyl]carbamate], at least 80%. To `COC(=O)Nc1ccc(-c2cnc3ccc(C(=O)N(C)c4cc(C)cc(OC)c4)cn23)cn1` [Compound 59, methyl N-[5-[6-[(3-methoxy-5-methyl-phenyl)-methyl-carbamoyl]imidazo[1,2-a]pyridin-3-yl]-2-pyridyl]carbamate] belongs at least 80%; to `COC(=O)Nc1ccc(-c2cnc3cc(OC)c(C(=O)N(C)c4ccc(Cl)cc4)cn23)cc1` [Compound 39, methyl N-[4-[6-[(4-chlorophenyl)-methyl-carbamoyl]-7-methoxy-imidazo[1,2-a]pyridin-3-yl]phenyl]carbamate], at least 80%. As for `COC(=O)Nc1ccc(-c2cnc3ccc(C(=O)N(c4ccccc4)C4CC4)cn23)cn1` [Compound 147, methyl N-[5-[6-[cyclopropyl(phenyl)carbamoyl]imidazo [1,2-a]pyridin-3-yl]-2-pyridyl]carbamate], the inhibition at 20 ppm was at least 80%. The same measure for `COC(=O)Nc1ccc(-c2cnc3ccc(C(=O)N(C)c4ccc(C)c(C)c4)cn23)cn1` [Compound 65, methyl N-[5-[6-[(3,4-dimethylphenyl)-methyl-carbamoyl]imidazo[1,2-a]pyridin-3-yl]-2-pyridyl]carbamate]: at least 80%.

As to `COC(=O)Nc1ccc(-c2cnc3ccc(C(=O)N(CC4CC4)c4ccc(Cl)cc4)cn23)cc1` [Compound 28, methyl N-[4-[6-[(4-chlorophenyl)-(cyclopropylmethyl)carbamoyl]imidazo[1,2-a]pyridin-3-yl]phenyl]carbamate], the inhibition at 20 ppm was at least 80%. Turning to `CCC(=O)Nc1ccc(-c2cnc3ccc(C(=O)N(C)c4ccc(F)cc4)cn23)cn1` [Compound 166, N-(4-fluorophenyl)-N-methyl-3-[6-(propanoylamino)-3-pyridyl]imidazo[1,2-a]pyridine-6-carboxamide], the inhibition at 20 ppm is at least 80%. The same measure for `CN(C(=O)c1ccc2ncc(-c3ccc(NC(=O)C4CC4)nc3)n2c1)c1ccc(F)cc1` [Compound 165, 3-[6-(cyclo-propanecarbonylamino)-3-pyridyl]-N-(4-fluorophenyl)-N-methyl-imidazo[1,2-a]pyridine-6-carboxamide]: at least 80%.

Regarding `COC(=O)Nc1ccc(-c2cnc3ccc(C(=O)N(C)c4ccc(OC(F)F)cc4)cn23)cn1` [Compound 66, methyl N-[5-[6-[[4-(difluoromethoxy)phenyl]-methyl-carbamoyl]imidazo[1,2-a]pyridin-3-yl]-2-pyridyl]carbamate], the inhibition at 20 ppm was at least 80%. Consider `COC(=O)Nc1ccc(-c2cnc3cc(C)c(C(=O)N(C)c4ccc(Cl)cc4)cn23)cc1` [Compound 18, methyl N-[4-[6-[(4-chlorophenyl)-methyl-carbamoyl]-7-methyl-imidazo[1,2-a]pyridin-3-yl]phenyl]carbamate], for which the inhibition at 20 ppm is at least 80%. On to `COC(=O)CN(C(=O)c1ccc2ncc(-c3ccc(NC(=O)OC)nc3)n2c1)c1ccc(F)c(OC)c1` [Compound 91, methyl 2-(4-fluoro-3-methoxy-N-[3-[6-(methoxycarbonyl-amino)-3-pyridyl]imidazo[1,2-a]pyridine-6-carbonyl]anilino)acetate], for which the inhibition at 20 ppm is at least 80%. To `COC(=O)Nc1ccc(-c2cnc3ccc(C(=O)N(C)c4ccc(C(C)=O)cc4)cn23)cn1` [Compound 104, methyl N-[5-[6-[(4-acetylphenyl)-methyl-carbamoyl]imidazo[1,2-a]pyridin-3-yl]-2-pyridyl]carbamate] belongs at least 80%; to `COC(=O)Nc1ccc(-c2cnc3ccc(C(=O)N(C)c4ccc(Br)cc4)cn23)cn1` [Compound 68, methyl N-[5-[6-[(4-bromophenyl)-methyl-carbamoyl]imidazo[1,2-a]pyridin-3-yl]-2-pyridyl]carbamate], at least 80%. The same measure for `COC(=O)Nc1ccc(-c2cnc3cc(F)c(C(=O)N(C)c4ccc(Cl)cc4)cn23)cc1` [Compound 42, methyl N-[4-[6-[(4-chlorophenyl)-methyl-carbamoyl]-7-fluoro-imidazo[1,2-a]pyridin-3-yl]phenyl]carbamate]: at least 80%.
